# Laboratory results from BindingDB's records for doi:10.1016/j.ejmech.2021.113317 (Universities of Shandong, 2021).
# Experiments:
# [1] = Reversal of BCRP-mediated multidrug resistance in human KBV cells assessed as mitoxantrone IC50 at 5 uM after 72 hrs in presence of mitoxantrone by MTT assay (Rvb = 1186.50 +/- 29.24 nM)
# [2] = Reversal of MRP2-mediated multidrug resistance in human KBV cells assessed as cisplatin IC50 at 10 uM after 72 hrs in presence of cisplatin by MTT assay (Rvb = 4902.89 +/- 130.33 nM)
# [3] = Reversal of BCRP-mediated multidrug resistance in human KBV cells assessed as mitoxantrone IC50 at 10 uM after 72 hrs in presence of mitoxantrone by MTT assay (Rvb = 1186.50 +/- 29.24 nM)
# [4] = Reversal of MRP2-mediated multidrug resistance in human KBV cells assessed as cisplatin IC50 at 5 uM after 72 hrs in presence of cisplatin by MTT assay (Rvb = 4902.89 +/- 130.33 nM)
IC50 [2],IC50 [4],SMILES,IC50 [1],IC50 [3]
> 5 µM,> 5 µM,CSCC[C@H](NC(=O)OC(C)(C)C)C(=O)O[C@H]1CC[C@]2(C)[C@H]3C[C@@H](O)[C@@H]4[C@@H]([C@]5(C)CC[C@H](C(C)(C)O)O5)CC[C@@]4(C)[C@]3(C)CC[C@H]2C1(C)C,0.843 µM,0.748 µM
> 5 µM,> 5 µM,CSCC[C@H](NC(=O)OC(C)(C)C)C(=O)O[C@H]1CC[C@]2(C)[C@H]3C[C@@H](O)[C@@H]4[C@@H]([C@]5(C)CC[C@@H](C(C)(C)O)O5)CC[C@@]4(C)[C@]3(C)CC[C@H]2C1(C)C,1.46 µM,1.01 µM
> 5 µM,,COc1ccc(CCN(C)CCCC(C#N)(c2ccc(OC)c(OC)c2)C(C)C)cc1OC (centres undefined) [NSC_62969],,
